Test results published in PubChem BioAssay AID1963869 (Molecular Pharmacology Branch, DTP, NCI, 2024).
Active and inactive are the calls of the source. The calls were made as follows: active = viability on the fitted dose curve at most 10% of control; inactive = the rest.

System: KRAS patient-derived spheroids with HUVEC/MSC, viability
Experiment: Anticancer human tumor 323965-272-R-J2-PDC patient-derived pancreatic carcinoma cell line growth inhibition [KRAS2]
Details: for IC50: curve of first compound; for viability, T/C: stronger effect = lower value
How it was run: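 KRAS-mutant tumor cells were grown as spheroids with HUVEC endothelial cells and human MSCs as stroma. Targeted agents were tested alone and with KRAS pathway inhibitors. Doses started at or near clinical Cmax, or 10 microM, descending half-log.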

[1] = second compound 0.1 µM, first compound 0.0316 µM
[2] = second compound 0.1 µM, first compound 0.1 µM
[3] = second compound 0.1 µM, first compound 0.316 µM
[4] = second compound 0.1 µM, first compound 1 µM
[5] = second compound 0.1 µM, first compound 3.16 µM
[6] = second compound 0.1 µM, first compound 10 µM
[7] = second compound 0.316 µM, first compound 0.0316 µM
[8] = second compound 0.316 µM, first compound 0.1 µM
[9] = second compound 0.316 µM, first compound 0.316 µM
[10] = second compound 0.316 µM, first compound 1 µM
[11] = second compound 0.316 µM, first compound 3.16 µM
[12] = second compound 0.316 µM, first compound 10 µM
[13] = second compound 1 µM, first compound 0.0316 µM
[14] = second compound 1 µM, first compound 0.1 µM
[15] = second compound 1 µM, first compound 0.316 µM
[16] = second compound 1 µM, first compound 1 µM
[17] = second compound 1 µM, first compound 3.16 µM
[18] = second compound 1 µM, first compound 10 µM
[19] = second compound 3.16 µM, first compound 0.0316 µM
[20] = second compound 3.16 µM, first compound 0.1 µM
[21] = second compound 3.16 µM, first compound 0.316 µM
[22] = second compound 3.16 µM, first compound 1 µM
[23] = second compound 3.16 µM, first compound 3.16 µM
[24] = second compound 3.16 µM, first compound 10 µM
[25] = second compound 0.1 µM, first compound 0.01 µM
[26] = second compound 0.316 µM, first compound 0.01 µM
[27] = second compound 1 µM, first compound 0.01 µM
[28] = second compound 3.16 µM, first compound 0.01 µM
[29] = second compound 10 µM, first compound 0.01 µM
[30] = second compound 10 µM, first compound 0.0316 µM
[31] = second compound 10 µM, first compound 0.1 µM
[32] = second compound 10 µM, first compound 0.316 µM
[33] = second compound 10 µM, first compound 1 µM
[34] = second compound 10 µM, first compound 3.16 µM
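For IC50 in this document: spheroids exposed to agents for 7 days.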
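For viability, T/C in this document: spheroids exposed to agents for 7 days; 100% = DMSO vehicle control viability.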

SMILES: CC1OCC2(CCN(c3cnc(Sc4ccnc(N)c4Cl)c(N)n3)CC2)C1N (stereo not given) + C=CC(=O)N1CCN(c2nc(OCC3CCCN3C)nc3c2CCN(c2cccc4cccc(C)c24)C3)CC1CC#N
- IC50 (second compound 0.0316 µM): 36.9 nM
- IC50 (second compound 0.1 µM): < 31.6 nM
- IC50 (second compound 0.316 µM): < 31.6 nM
- IC50 (second compound 1 µM): < 31.6 nM
- IC50 (second compound 3.16 µM): < 31.6 nM
- viability, T/C (second compound 0.0316 µM, first compound 0.0316 µM): 51.4%
- viability, T/C (second compound 0.0316 µM, first compound 0.1 µM): 39.2%
- viability, T/C (second compound 0.0316 µM, first compound 0.316 µM): 24.4%
- viability, T/C (second compound 0.0316 µM, first compound 1 µM): 19.3%
- viability, T/C (second compound 0.0316 µM, first compound 3.16 µM): 12.3%
- viability, T/C (second compound 0.0316 µM, first compound 10 µM): 9.85%
- viability, T/C [1]: 38.4%
- viability, T/C [2]: 31.9%
- viability, T/C [3]: 21.5%
- viability, T/C [4]: 15.1%
- viability, T/C [5]: 10.7%
- viability, T/C [6]: 10.8%
- viability, T/C [7]: 41%
- viability, T/C [8]: 30.5%
- viability, T/C [9]: 18.4%
- viability, T/C [10]: 17%
- viability, T/C [11]: 10.8%
- viability, T/C [12]: 9.7%
- viability, T/C [13]: 35.2%
- viability, T/C [14]: 28.9%
- viability, T/C [15]: 15.7%
- viability, T/C [16]: 13.5%
- viability, T/C [17]: 11.6%
- viability, T/C [18]: 10%
- viability, T/C [19]: 1.93%
- viability, T/C [20]: 1.12%
- viability, T/C [21]: 0.53%
- viability, T/C [22]: 0.65%
- viability, T/C [23]: 1.07%
- viability, T/C [24]: 1.33%

SMILES: CC(=O)OC12COC1CC(O)C1(C)C(=O)C(O)C3=C(C)C(OC(=O)C(O)C(NC(=O)OC(C)(C)C)c4ccccc4)CC(O)(C(OC(=O)c4ccccc4)C21)C3(C)C (stereo not given) + CC1OCC2(CCN(c3cnc(Sc4ccnc(N)c4Cl)c(N)n3)CC2)C1N
- IC50 (second compound 0.1 µM): < 10 nM
- IC50 (second compound 0.316 µM): < 10 nM
- IC50 (second compound 1 µM): < 10 nM
- IC50 (second compound 3.16 µM): < 10 nM
- IC50 (second compound 10 µM): < 10 nM
- viability, T/C [25]: 26.3%
- viability, T/C [1]: 25.6%
- viability, T/C [2]: 25.5%
- viability, T/C [3]: 21.7%
- viability, T/C [4]: 27%
- viability, T/C [5]: 27.7%
- viability, T/C [26]: 23.8%
- viability, T/C [7]: 23.9%
- viability, T/C [8]: 21.3%
- viability, T/C [9]: 19.8%
- viability, T/C [10]: 23%
- viability, T/C [11]: 23.5%
- viability, T/C [27]: 34.2%
- viability, T/C [13]: 33.5%
- viability, T/C [14]: 31.2%
- viability, T/C [15]: 32.4%
- viability, T/C [16]: 37.2%
- viability, T/C [17]: 39.7%
- viability, T/C [28]: 16.9%
- viability, T/C [19]: 16.3%
- viability, T/C [20]: 14.8%
- viability, T/C [21]: 14.1%
- viability, T/C [22]: 15.2%
- viability, T/C [23]: 17.2%
- viability, T/C [29]: 18.1%
- viability, T/C [30]: 16.5%
- viability, T/C [31]: 15.9%
- viability, T/C [32]: 12.3%
- viability, T/C [33]: 13.9%
- viability, T/C [34]: 16.7%

SMILES: CN(C)C/C=C/C(=O)Nc1cc2c(Nc3ccc(F)c(Cl)c3)ncnc2cc1O[C@H]1CCOC1 + CC1OCC2(CCN(c3cnc(Sc4ccnc(N)c4Cl)c(N)n3)CC2)C1N
- IC50 (second compound 0.1 µM): > 100 nM
- IC50 (second compound 0.316 µM): 0.979 nM
- IC50 (second compound 1 µM): > 100 nM
- IC50 (second compound 3.16 µM): < 0.316 nM
- IC50 (second compound 10 µM): > 100 nM
- viability, T/C (second compound 0.1 µM, first compound 0.000316 µM): 68.4%
- viability, T/C (second compound 0.1 µM, first compound 0.001 µM): 75.9%
- viability, T/C (second compound 0.1 µM, first compound 0.00316 µM): 65.4%
- viability, T/C [25]: 57.8%
- viability, T/C [1]: 57.7%
- viability, T/C [2]: 58.6%
- viability, T/C (second compound 0.316 µM, first compound 0.000316 µM): 63%
- viability, T/C (second compound 0.316 µM, first compound 0.001 µM): 49%
- viability, T/C (second compound 0.316 µM, first compound 0.00316 µM): 48.1%
- viability, T/C [26]: 38.1%
- viability, T/C [7]: 41.1%
- viability, T/C [8]: 44.6%
- viability, T/C (second compound 1 µM, first compound 0.000316 µM): 96.4%
- viability, T/C (second compound 1 µM, first compound 0.001 µM): 95.8%
- viability, T/C (second compound 1 µM, first compound 0.00316 µM): 78.5%
- viability, T/C [27]: 75.2%
- viability, T/C [13]: 64.6%
- viability, T/C [14]: 63.3%
- viability, T/C (second compound 3.16 µM, first compound 0.000316 µM): 39%
- viability, T/C (second compound 3.16 µM, first compound 0.001 µM): 33%
- viability, T/C (second compound 3.16 µM, first compound 0.00316 µM): 27.4%
- viability, T/C [28]: 27.7%
- viability, T/C [19]: 28.6%
- viability, T/C [20]: 34.7%
- viability, T/C (second compound 10 µM, first compound 0.000316 µM): 107%
- viability, T/C (second compound 10 µM, first compound 0.001 µM): 96.9%
- viability, T/C (second compound 10 µM, first compound 0.00316 µM): 70.5%
- viability, T/C [29]: 56%
- viability, T/C [30]: 59.8%
- viability, T/C [31]: 55.9%

SMILES: O=C(c1cc(Cc2n[nH]c(=O)c3ccccc23)ccc1F)N1CCN(C(=O)C2CC2)CC1 + CC1OCC2(CCN(c3cnc(Sc4ccnc(N)c4Cl)c(N)n3)CC2)C1N
- IC50 (second compound 0.1 µM): > 10000 nM
- IC50 (second compound 0.316 µM): > 10000 nM
- IC50 (second compound 1 µM): 9440 nM
- IC50 (second compound 3.16 µM): < 31.6 nM
- IC50 (second compound 10 µM): < 31.6 nM
- viability, T/C [1]: 73.2%
- viability, T/C [2]: 73.4%
- viability, T/C [3]: 82.2%
- viability, T/C [4]: 80.1%
- viability, T/C [5]: 82.3%
- viability, T/C [6]: 53.7%
- viability, T/C [7]: 60.9%
- viability, T/C [8]: 67.9%
- viability, T/C [9]: 65.8%
- viability, T/C [10]: 67.3%
- viability, T/C [11]: 61.3%
- viability, T/C [12]: 40.1%
- viability, T/C [13]: 101%
- viability, T/C [14]: 106%
- viability, T/C [15]: 102%
- viability, T/C [16]: 101%
- viability, T/C [17]: 88.5%
- viability, T/C [18]: 47.8%
- viability, T/C [19]: 36.6%
- viability, T/C [20]: 40.9%
- viability, T/C [21]: 41.4%
- viability, T/C [22]: 34.8%
- viability, T/C [23]: 36.8%
- viability, T/C [24]: 24.9%
- viability, T/C [30]: 33.1%
- viability, T/C [31]: 33.1%
- outcome [32]: inactive
- viability, T/C [33]: 28%
- viability, T/C [34]: 23.7%
- viability, T/C (second compound 10 µM, first compound 10 µM): 19%
